Data taken from patent publication US9056108B2, “Method of treating atrial fibrillation” (Gilead Sciences, Inc., priority 2009, dated 2015).

Assays:
[1] = test system: isolated canine coronary-perfused right atria; test: Electrophysiology in isolated coronary-perfused canine right atrial preparations; conditions: for Shortest S1-S1 (shortest CL permitting 1:1 activation) / APD90 / ERP: ranolazine 5 μM, dronedarone 10 μM; for APD90 / ERP: pectinate muscle, CL of 500 ms
Description: Experiments were performed using isolated coronary-perfused canine right atrial (RA) and left ventricular (LV) preparations (≈3×1.5×1 cm). Isolation and perfusion of the preparations were as previously described.^9, 15, 16 Briefly, preparations were dissected from hearts removed from anesthetized (sodium pentobarbital) adult mongrel dogs (20-30 kg). Unfolded RA with attached rim of the right ventricle was cannulated and perfused with cold cardioplegic solution (4-8° C.) through the ostium of the right coronary artery; the LV wedge was perfused through a diagonal branch of the left anterior descending coronary artery. Unperfused tissue was removed with a razor blade. Cut ventricular and atrial branches were ligated using silk thread. The preparations were then transferred to a temperature-controlled bath and arterially-perfused with Tyrode's solution by use of a roller pump. The composition of the Tyrode's solution was (in mM): NaCl 129, KCl 4, NaH2PO4 0.9, NaHCO3 20, CaCl2 1.8, MgSO4 0.5, and D-glucose 5.5, buffered with 95% O2 and 5% CO2 (37±0.5° C., pH=7.35)
Transmembrane action potential (AP) recordings were obtained using floating glass microelectrodes at a sampling rate of 40 kHz. A pseudo-electrocardiogram (ECG) was recorded using two electrodes consisting of Ag/AgCl half cells placed in the Tyrode's solution bathing the preparation, 1.0 to 1.5 cm from the two opposite sides of the atrial or ventricular coronary-perfused preparations. Conduction time was approximated by the duration of “P wave” in atria and “QRS complex” in ventricles, at a level representing 10% of “P wave” and “QRS” amplitude. Diastolic threshold of excitation (DTE) was determined by increasing stimulus intensity in 0.01 mA steps. Effective refractory period (ERP) was measured by delivering premature stimuli at progressively shorter S1-S2 intervals after every 10 basic beats at a pacing cycle length (CL) of 500 ms (5 ms steps; 2 times DTE). Post-repolarization refractoriness (PRR) was recognized when ERP exceeded action potential duration measured at 90% repolarization (APD90) in the ventricle and APD measured at 70% repolarization (APD70) in atria. Ventricular ERP was coincident with APD90, whereas atrial ERP was generally coincident with APD70-75.^9 The shortest S1-S1 permitting 1:1 activation was measured by progressively shortening pacing CL starting from a CL of 500 ms.
Stable AP recordings could not be readily obtained in the vigorously contracting perfused preparations. The largest recorded maximum rate of rise of the AP upstroke (Vmax) values per experimental condition were taken for statistical comparison. Only APs having amplitudes of at least 100 mV were considered in the analysis. The largest Vmax criterion was used because this was associated with the largest amplitude and the most negative resting membrane potential, depicting full or near full impalement. In determining use-dependent depression of Vmax, values were normalized to the Vmax value at a CL of 500 ms for each experiment and then averaged.
Because of their dependence on peak INa, Vmax, DTE, PRR, and conduction time as well the shortest S1-S1 interval permitting 1:1 activation are referred to as INa-dependent parameters.
The equilibration period for the coronary-perfused preparations was 30-120 min. The preparations were exposed to 5 μM ranolazine, 10 μM dronedarone (after 30 min washout of ranolazine), and the combination of these agents for at a period of at least 20 min. In time-control experiments, 20 minutes was sufficient to achieve steady-state in the effects of each of the drugs to alter electrophysiologic parameters. Recordings were obtained at a cycle length (CL) of 500 and 300 ms, unless otherwise indicated. […] When determining the shortest S1-S1 pacing rate permitting 1:1 activation, the stimulation intensity was DTE x 2, determined at a CL of 500 ms.

[2] = test system: ACh-mediated persistent AF in isolated canine coronary-perfused right atria; test: Acetylcholine (ACh)-mediated persistent AF model in coronary-perfused right atria; conditions: for Termination Persistent AF: ACh 1 μM-mediated persistent AF; for Prevention of AF re-induction: after termination of ACh-mediated AF; for Reduction/suppression of persistent AF: canine perfused right atrial preparations; for Induction of Persistent AF: in presence of ACh 1 μM
Description: To assess the anti-AF potential of ranolazine, dronedarone, and their combination, we used an acetylcholine (ACh, 1.0 μM)-mediated AF model. In the presence of ACh, premature electrical stimulation (PES) or rapid pacing (CL=50-80 ms) induces persistent AF in 100% of canine coronary-perfused right atrial preparations.^9 The effect of the drugs was assessed to prevent (series 1) the induction of AF. In a separate set of preparations, the ability of these agents was evaluated to terminate (series 2) persistent AF. In the first series, ACh was added to the perfusate 20-30 min after the start of perfusion with 5 μM ranolazine, 10 μM dronedarone, or the combination of these agents. This was followed by attempts to induce the arrhythmia electrically. In the second series, the agents were added to the perfusate during ACh-mediated persistent AF (on the 5-6th minutes after the start of the arrhythmia). In cases in which the drug terminated AF, we attempted to re-induce the arrhythmia with rapid pacing.

[3] = test system: canine pulmonary vein (PV) sleeve preparations; test: Superfused pulmonary vein (PV) sleeve preparations; conditions: ranolazine 5 μM; for Reduction in Vmax following change of rate: CL 5000 to 300 ms, dronedarone 10 μM (control 13%); for Diastolic threshold of excitation (DTE): CL of 300 ms, from 0.21±0.07; for Diastolic threshold of excitation (DTE) / Shortest pacing CL permitting a 1:1 response: dronedarone 10 μM; for Shortest pacing CL permitting a 1:1 response: untreated controls 116±8
Description: Pulmonary vein (PV) sleeve preparations (approximately 2.0×1.5 cm) were isolated from left canine atria. The thickness of the preparation was approximately 2 mm. […] The preparations were placed in a small tissue bath and superfused with Tyrode's solution of the following composition (mM): 129 NaCl, 4 KCl, 0.9 NaH2PO4, 20 NaHCO3, 1.8 CaCl2, 0.5 MgSO4, 5.5 glucose, buffered with 95% O2/5% CO2 (35±0.5° C.). The PV preparations were stimulated at a basic cycle length (BCL) of 1000 ms during the equilibration period (1 h) using electrical pulses (1-3 ms duration, 2.5 times diastolic threshold intensity) delivered through silver bipolar electrodes insulated except at the tips. Transmembrane potentials were recorded (at a sampling rate of 40 kHz) using glass microelectrodes filled with 3 M KCl (10-20 MΩ DC resistance) connected to a high input-impedance amplification system (World Precision Instruments, model KS-700, New Haven, Conn.). The following parameters were measured: DTE, Vmax, and shortest S1-S1 permitting 1:1 activation. Acetylcholine (ACh, 1 μM), isoproterenol (1 μM), high calcium or their combination were used to induce late phase 3 EADs, DADs and triggered activity.

[4] = test system: ACh-mediated persistent AF in isolated canine coronary-perfused right atria; test: Acetylcholine (ACh)-mediated persistent AF model in coronary-perfused right atria; conditions: ranolazine 5 μM, dronedarone 10 μM; without ACh
[5] = 2x threshold stimulus intensity, without ACh, in ms (unit assumed)
[6] = ranolazine 5 μM, dronedarone 10 μM

SMILES: COc1ccccc1OCC(O)CN1CCN(CC(=O)Nc2c(C)cccc2C)CC1 (racemic) [Ranolazine, (±)-N-(2,6-dimethylphenyl)-4-[2-hydroxy-3-(2-methoxyphenoxy)-propyl]-1-piperazineacetamide]
- Shortest S1-S1 (shortest CL permitting 1:1 activation) [1, 5]: 201 ± 22
- Shortest S1-S1 (shortest CL permitting 1:1 activation) ([1]; in presence of ACh 1 μM): 94 ± 11
- APD90 ([1]; in presence of ACh 1 μM): 52 ± 6 ms
- ERP ([1]; in presence of ACh 1 μM): 72 ± 13 ms
- APD90 ([1]; without ACh): 210 ± 10 ms
- ERP ([1]; without ACh): 181 ± 11 ms
- Termination Persistent AF [2, 6]: 20%
- Prevention of AF re-induction [2, 6]: 100%
- Reduction/suppression of persistent AF [2]: 29%
- Induction of Persistent AF [2, 6]: 71%
- Prevention of induction of sustained/persistent AF (atria) ([2]; pretreatment, then ACh 1 μM, ranolazine 5 μM, dronedarone 10 μM): 2/7
- Reduction in Vmax following change of rate [3]: 19%
- Diastolic threshold of excitation (DTE) [3]: 0.24±0.09 mA
- Shortest pacing CL permitting a 1:1 response [3]: 121 ± 13 ms
- Induction of Persistent AF [4]: 0%

SMILES: CCCCc1oc2ccc(NS(C)(=O)=O)cc2c1C(=O)c1ccc(OCCCN(CCCC)CCCC)cc1 [Dronedarone, N-(2-Butyl-3-(p-(3-(dibutylamino)propoxy)benzoyl)-5-benzofuranyl)methanesulfonamide]
- Shortest S1-S1 (shortest CL permitting 1:1 activation) [1, 5]: 147 ± 11
- Prolongation of atrial ERP ([1]; current in vitro investigation): 9%
- Shortest S1-S1 (shortest CL permitting 1:1 activation) ([1]; in presence of ACh 1 μM): 88 ± 13
- APD90 ([1]; in presence of ACh 1 μM): 45 ± 5 ms
- ERP ([1]; in presence of ACh 1 μM): 59 ± 7 ms
- APD90 ([1]; without ACh): 202 ± 9 ms
- ERP ([1]; without ACh): 171 ± 11 ms
- Termination Persistent AF [2, 6]: 17%
- Prevention of AF re-induction [2, 6]: 0%
- Reduction/suppression of persistent AF [2]: 17%
- Induction of Persistent AF [2, 6]: 83%
- Reduction in Vmax following change of rate [3]: 20%
- Diastolic threshold of excitation (DTE) [3]: 0.26±0.09 mA
- Shortest pacing CL permitting a 1:1 response [3]: 120 ± 12 ms
- Induction of Persistent AF [4]: 0%
